Measurements: ChEMBL document CHEMBL4177745, “2-Methyltetrahydro-3-benzazepin-1-ols - The missing link in SAR of GluN2B selective NMDA receptor antagonists” (Bioorg Med Chem, 2018)

Assays:
[1] = Displacement of [3H]-ifenprodil from recombinant human GluN1a/GluN2B expressed in L(tk-) cell membranes after 120 mins by scintillation counting analysis
[2] = target: T1, Sigma intracellular receptor 2 (Rattus norvegicus, UniProt Q5U3Y7); test: Displacement of [3H]-DTG from sigma 2 receptor in rat liver membranes after 120 mins by scintillation counting analysis; format: cell membranes, Membrane
T1 sequence (Q5U3Y7 whole entry): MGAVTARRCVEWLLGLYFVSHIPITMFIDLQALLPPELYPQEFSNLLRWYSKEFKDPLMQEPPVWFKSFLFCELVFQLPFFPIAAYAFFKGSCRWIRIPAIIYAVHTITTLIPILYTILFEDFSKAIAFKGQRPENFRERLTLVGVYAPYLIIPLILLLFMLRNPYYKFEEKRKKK

[3] = target: Sigma non-opioid intracellular receptor 1 (Cavia porcellus, UniProt Q60492); test: Displacement of [3H]-(+)-Pentazocine from sigma 1 receptor in guinea pig brain cortex membranes after 120 mins by scintillation counting analysis; format: cell membranes
[4] = Selectivity ratio of Ki for recombinant human GluN1a/GluN2B expressed in L(tk-) cell membranes to Ki for sigma 1 receptor in guinea pig brain cortex membranes; format: cell-based

Sigma non-opioid intracellular receptor 1, sequence (Q60492 whole entry): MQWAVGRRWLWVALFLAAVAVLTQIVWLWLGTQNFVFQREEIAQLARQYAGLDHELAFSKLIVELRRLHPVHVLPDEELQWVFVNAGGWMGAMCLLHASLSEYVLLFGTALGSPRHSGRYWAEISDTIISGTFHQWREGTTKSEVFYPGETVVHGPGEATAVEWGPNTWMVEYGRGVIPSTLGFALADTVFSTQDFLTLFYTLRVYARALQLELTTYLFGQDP

SMILES	Ki [1] [nM]	Ki [2] [nM]	Ki [3] [nM]	Ratio Ki [4]
Oc1ccc2c(c1)CCN(CCCCc1ccccc1)CC2O (centres undefined)	14	> 10000		
OC1CN(CCCCc2ccccc2)CCc2ccccc21 (centres undefined)	73	76	676	
C[C@@H]1[C@H](O)c2ccc(O)cc2CCN1CCCCc1ccccc1	17	148		
C[C@@H]1[C@H](O)c2ccccc2CCN1CCCCc1ccccc1 (relative stereo)	252	126	46	5
C[C@@H]1[C@H](O)c2ccccc2CCN1Cc1ccccc1 (relative stereo)	259	894	261	
C[C@@H]1[C@H](O)c2ccccc2CCN1CCCCCc1ccccc1 (relative stereo)	56	60	10	5
CC(C(O)c1ccc(O)cc1)N1CCC(Cc2ccccc2)CC1 (centres undefined) [IFENPRODIL]	10			
